# Test results: US8906944B2, “Compounds as tyrosine kinase modulators” (Allergan, Inc., priority 2009, dated 2014)
# Key:
# Type in all cases: biochemical
# [1] = molecular target: T1, human VEGF receptor (VEGFR-2) (Homo sapiens, UniProt P35968); assay: VEGFR2 kinase assay; conditions: His-VEGFR-2 cytoplasmic domain, 3.6 μM ATP; Table IV, amide or urea linker; read-out: VEGFR2 Enzyme IC50
# T1 construct: The cytoplasmic domain of the human VEGF receptor (VEGFR-2) was expressed; His; made in house; host or cells: insect cells (baculovirus)
# T1 sequence (P35968 786-1356 limits assumed): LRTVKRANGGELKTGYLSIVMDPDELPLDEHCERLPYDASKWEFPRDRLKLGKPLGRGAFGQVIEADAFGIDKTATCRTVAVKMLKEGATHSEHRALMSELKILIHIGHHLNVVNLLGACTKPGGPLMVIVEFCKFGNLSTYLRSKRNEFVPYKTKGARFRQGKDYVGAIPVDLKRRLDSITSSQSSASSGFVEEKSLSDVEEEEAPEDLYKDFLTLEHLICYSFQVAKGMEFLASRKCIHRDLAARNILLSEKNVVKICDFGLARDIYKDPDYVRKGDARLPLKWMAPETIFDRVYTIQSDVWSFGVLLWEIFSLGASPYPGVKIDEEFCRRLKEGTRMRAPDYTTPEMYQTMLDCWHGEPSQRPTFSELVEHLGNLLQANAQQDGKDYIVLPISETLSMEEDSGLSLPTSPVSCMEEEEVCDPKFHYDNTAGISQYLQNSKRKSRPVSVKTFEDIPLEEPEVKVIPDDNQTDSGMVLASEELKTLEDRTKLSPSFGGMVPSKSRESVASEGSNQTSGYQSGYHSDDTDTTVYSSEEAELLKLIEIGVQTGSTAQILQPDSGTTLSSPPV
# Experimental: The cytoplasmic domain of the human VEGF receptor (VEGFR-2) was expressed as a Histidine-tagged fusion protein following infection of insect cells using an H is engineered baculovirus. […] Kinase assays were performed in 96 well microtiter plates that were coated overnight with 30 µg of poly-Glu-Tyr (4:1) in 10 mM Phosphate Buffered Saline (PBS), pH 7.2-7.4. The plates were incubated with 1% BSA and then washed four times with PBS prior to starting the reaction. Reactions were carried out in 120 µL reaction volumes containing 3.6 µM ATP in kinase buffer (50 mM Hepes buffer pH 7.4, 20 mM MgCl2, 0.1 mM MnCl2 and 0.2 mM Na3 VO4). […] Reactions were initiated by the addition 0.5 ng of purified protein. Following a ten minute incubation at 25 degree. […] IC50 values for compound inhibition were calculated directly from graphs of optical density (arbitrary units) versus compound concentration following subtraction of blank values.
# VEGFR1 = VEGFR1 (Homo sapiens, UniProt P17948); assay: VEGFR1 enzyme assay; conditions: Table IV, amide or urea linker
# VEGFR1, sequence (P17948 27-1338, species assumed): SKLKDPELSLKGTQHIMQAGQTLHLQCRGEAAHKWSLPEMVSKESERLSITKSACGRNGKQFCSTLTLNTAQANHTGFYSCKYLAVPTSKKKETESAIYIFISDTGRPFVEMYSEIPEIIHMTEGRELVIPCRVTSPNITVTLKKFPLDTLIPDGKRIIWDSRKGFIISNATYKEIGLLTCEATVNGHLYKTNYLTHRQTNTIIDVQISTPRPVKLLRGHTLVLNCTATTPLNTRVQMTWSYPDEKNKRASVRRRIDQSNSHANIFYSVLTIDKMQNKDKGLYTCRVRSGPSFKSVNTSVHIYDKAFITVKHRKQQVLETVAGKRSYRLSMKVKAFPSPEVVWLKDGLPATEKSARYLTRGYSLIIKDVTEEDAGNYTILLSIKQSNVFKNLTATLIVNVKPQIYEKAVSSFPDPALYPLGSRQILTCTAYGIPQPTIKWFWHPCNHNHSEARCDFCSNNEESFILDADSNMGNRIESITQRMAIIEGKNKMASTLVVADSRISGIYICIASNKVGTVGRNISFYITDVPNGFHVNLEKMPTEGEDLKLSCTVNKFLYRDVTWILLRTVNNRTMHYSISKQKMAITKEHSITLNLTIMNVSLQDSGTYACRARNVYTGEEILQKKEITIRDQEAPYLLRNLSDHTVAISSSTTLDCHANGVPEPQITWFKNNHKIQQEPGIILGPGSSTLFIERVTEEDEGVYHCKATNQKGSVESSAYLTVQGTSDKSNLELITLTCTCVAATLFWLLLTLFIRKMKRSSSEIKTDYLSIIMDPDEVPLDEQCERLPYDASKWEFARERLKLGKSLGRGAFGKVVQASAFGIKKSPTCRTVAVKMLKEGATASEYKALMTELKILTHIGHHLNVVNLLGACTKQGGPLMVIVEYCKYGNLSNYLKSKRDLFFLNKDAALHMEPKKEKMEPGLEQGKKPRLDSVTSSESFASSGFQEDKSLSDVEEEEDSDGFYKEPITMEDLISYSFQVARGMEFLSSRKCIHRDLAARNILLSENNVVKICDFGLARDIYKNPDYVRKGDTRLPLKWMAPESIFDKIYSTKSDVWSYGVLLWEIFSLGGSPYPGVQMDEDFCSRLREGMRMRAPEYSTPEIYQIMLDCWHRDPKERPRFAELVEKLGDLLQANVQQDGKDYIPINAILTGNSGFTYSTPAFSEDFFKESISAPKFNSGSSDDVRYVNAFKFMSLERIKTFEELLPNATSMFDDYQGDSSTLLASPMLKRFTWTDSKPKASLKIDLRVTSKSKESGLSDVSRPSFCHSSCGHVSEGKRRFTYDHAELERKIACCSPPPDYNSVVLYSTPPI
# PDGFβ = PDGFβ (Homo sapiens, UniProt P09619); assay: PDGFβ enzyme assay; conditions: Table IV, amide or urea linker
# PDGFβ, sequence (P09619 33-1106): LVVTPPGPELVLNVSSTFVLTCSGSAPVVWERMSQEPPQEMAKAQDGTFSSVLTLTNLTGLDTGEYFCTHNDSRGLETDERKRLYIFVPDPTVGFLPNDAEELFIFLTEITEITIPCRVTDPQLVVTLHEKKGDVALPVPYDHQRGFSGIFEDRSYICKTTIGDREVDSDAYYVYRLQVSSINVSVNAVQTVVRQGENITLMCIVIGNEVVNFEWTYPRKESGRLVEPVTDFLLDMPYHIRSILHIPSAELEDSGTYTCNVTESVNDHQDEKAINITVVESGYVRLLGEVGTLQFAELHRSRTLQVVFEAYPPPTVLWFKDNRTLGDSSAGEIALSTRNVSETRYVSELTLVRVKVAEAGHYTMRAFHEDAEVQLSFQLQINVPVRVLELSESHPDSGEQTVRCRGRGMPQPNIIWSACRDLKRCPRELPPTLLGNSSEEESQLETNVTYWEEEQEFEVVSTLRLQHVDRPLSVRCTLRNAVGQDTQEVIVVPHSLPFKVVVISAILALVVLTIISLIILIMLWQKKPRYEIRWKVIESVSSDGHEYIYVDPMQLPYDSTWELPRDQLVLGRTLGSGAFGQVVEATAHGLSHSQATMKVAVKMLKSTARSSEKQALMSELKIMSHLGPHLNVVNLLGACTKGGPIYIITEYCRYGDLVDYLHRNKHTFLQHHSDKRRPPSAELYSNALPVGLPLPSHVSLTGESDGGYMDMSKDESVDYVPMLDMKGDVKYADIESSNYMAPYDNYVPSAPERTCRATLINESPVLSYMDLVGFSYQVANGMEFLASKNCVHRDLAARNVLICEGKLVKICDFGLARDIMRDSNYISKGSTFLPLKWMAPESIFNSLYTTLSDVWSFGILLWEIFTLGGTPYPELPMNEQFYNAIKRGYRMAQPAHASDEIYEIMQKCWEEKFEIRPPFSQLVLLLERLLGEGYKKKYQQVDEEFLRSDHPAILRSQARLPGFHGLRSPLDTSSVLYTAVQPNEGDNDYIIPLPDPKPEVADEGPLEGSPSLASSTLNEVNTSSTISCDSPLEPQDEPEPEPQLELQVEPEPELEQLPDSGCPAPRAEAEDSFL
Structure (SMILES),IC50 [1] [nM],IC50 (VEGFR1) [nM],IC50 (PDGFβ) [nM]
"Cc1ccc(F)c(NC(=O)c2ccc(F)c(Oc3ccnc(-c4cc(C(=O)N[C@@H](CCC(=O)O)C(=O)O)c[nH]4)c3)c2)c1 (stereo in doubt) [Example 248, 2-[({5-[4-(2-fluoro-5-{[(2-fluoro-5-methylphenyl)amino]carbonyl}phenoxy)pyridin-2-yl]-1H-pyrrol-3-yl}carbonyl)amino]pentanedioic acid]",56,28,157
"Cc1ccc(F)c(NC(=O)Nc2ccc(Oc3ccnc(-c4cc(C(=O)NCCCc5nn[nH]n5)c[nH]4)c3)cc2)c1 [Example 149, 5-{4-[4-({[(2-fluoro-5-methylphenyl)amino]carbonyl}amino)phenoxy]pyridin-2-yl}-N-[3-(2H-tetrazol-5-yl)propyl]-1H-pyrrole-3-carboxamide]",4,6,13
"Cc1ccc(F)c(NC(=O)Nc2ccc(Oc3ccnc(-c4cc(C(=O)NCCc5nn[nH]n5)c[nH]4)c3)cc2)c1 [Example 150, 5-{4-[4-({[(2-fluoro-5-methylphenyl)amino]carbonyl}amino)phenoxy]pyridin-2-yl}-N-[2-(2H-tetrazol-5-yl)ethyl]-1H-pyrrole-3-carboxamide]",5,7,16
"Cc1ccc(F)c(NC(=O)Nc2ccc(Oc3ccnc(-c4cc(C(=O)NCCCN5CCCC(CO)C5)c[nH]4)c3)cc2)c1 (stereo not drawn) [Example 160, 5-{4-[4-({[(2-fluoro-5-methylphenyl)amino]carbonyl}amino)phenoxy]pyridin-2-yl}-N-{3-[3-(hydroxymethyl)piperidin-1-yl]propyl}-1H-pyrrole-3-carboxamide]",9,7,19
"Cc1ccc(F)c(NC(=O)Nc2ccc(Oc3ccnc(-c4cc(C(=O)NCCCCC(=O)O)c[nH]4)c3)cc2)c1 [Example 166, 5-{[(5-{4-[4-({[(2-fluoro-5-methylphenyl)amino]carbonyl}amino)phenoxy]pyridin-2-yl}-1H-pyrrol-3-yl)carbonyl]amino}pentanoic acid]",5,6,11
"COC(=O)CNCCCNC(=O)c1c[nH]c(-c2cc(Oc3cc(C(=O)Nc4cc(C)ccc4F)ccc3F)ccn2)c1 [Example 180, methyl ({3-[({5-[4-(2-fluoro-5-{[(2-fluoro-5-methylphenyl)amino]carbonyl}phenoxy)pyridin-2-yl]-1H-pyrrol-3-yl}carbonyl)amino]propyl}amino)acetate]",14,32,53
"COC(=O)CNCCNC(=O)c1c[nH]c(-c2cc(Oc3cc(C(=O)Nc4cc(C)ccc4F)ccc3F)ccn2)c1 [Example 181, methyl ({2-[({5-[4-(2-fluoro-5-{[(2-fluoro-5-methylphenyl)amino]carbonyl}phenoxy)pyridin-2-yl]-1H-pyrrol-3-yl}carbonyl)amino]ethyl}amino)acetate]",22,65,132
"Cc1ccc(F)c(NC(=O)c2ccc(F)c(Oc3ccnc(-c4cc(C(=O)NCCCN5CCC(O)CC5)c[nH]4)c3)c2)c1 [Example 184, 5-[4-(2-fluoro-5-{[(2-fluoro-5-methylphenyl)amino]carbonyl}phenoxy)pyridin-2-yl]-N-[3-(4-hydroxypiperidin-1-yl)propyl]-1H-pyrrole-3-carboxamide]",19,51,49
"Cc1ccc(F)c(NC(=O)c2ccc(F)c(Oc3ccnc(-c4cc(C(=O)NCCCN5CCCC5)c[nH]4)c3)c2)c1 [Example 187, 5-[4-(2-fluoro-5-{[(2-fluoro-5-methylphenyl)amino]carbonyl}phenoxy)pyridin-2-yl]-N-(3-pyrrolidin-1-ylpropyl)-1H-pyrrole-3-carboxamide]",15,27,98
"Cc1ccc(F)c(NC(=O)Nc2ccc(Oc3ccnc(-c4cc(C(=O)NCCCN(C)CC(O)CO)c[nH]4)c3)cc2F)c1 (stereo not drawn) [Example 195, N-{3-[(2,3-dihydroxypropyl)(methyl)amino]propyl}-5-{4-[3-fluoro-4-({[(2-fluoro-5-methylphenyl)amino]carbonyl}amino)phenoxy]pyridin-2-yl}-1H-pyrrole-3-carboxamide]",7,9,19
"COC(=O)CNCCCNC(=O)c1c[nH]c(-c2cc(Oc3ccc(NC(=O)Nc4cc(C)ccc4F)c(F)c3)ccn2)c1 [Example 196, methyl [(3-{[(5-{4-[3-fluoro-4-({[(2-fluoro-5-methylphenyl)amino]carbonyl}amino)phenoxy]pyridin-2-yl}-1H-pyrrol-3-yl)carbonyl]amino}propyl)amino]acetate]",8,10,19
"Cc1ccc(F)c(NC(=O)Nc2ccc(Oc3ccnc(-c4cc(C(=O)NCCCN5CCCC(CO)C5)c[nH]4)c3)cc2F)c1 (stereo not drawn) [Example 205, 5-{4-[3-fluoro-4-({[(2-fluoro-5-methylphenyl)amino]carbonyl}amino)phenoxy]pyridin-2-yl}-N-{3-[3-(hydroxymethyl)piperidin-1-yl]propyl}-1H-pyrrole-3-carboxamide]",8,9,15
"Cc1ccc(F)c(NC(=O)Nc2ccc(Oc3ccnc(-c4cc(C(=O)NCCCN5CCOC(CO)C5)c[nH]4)c3)cc2F)c1 (stereo not drawn) [Example 206, 5-{4-[3-fluoro-4-({[(2-fluoro-5-methylphenyl)amino]carbonyl}amino)phenoxy]pyridin-2-yl}-N-{3-[2-(hydroxymethyl)morpholin-4-yl]propyl}-1H-pyrrole-3-carboxamide]",9,12,17
"Cc1ccc(F)c(NC(=O)Nc2ccc(Oc3ccnc(-c4cc(C(=O)NCCCN5CCC(O)CC5)c[nH]4)c3)cc2F)c1 [Example 207, 5-{4-[3-fluoro-4-({[(2-fluoro-5-methylphenyl)amino]carbonyl}amino)phenoxy]pyridin-2-yl}-N-[3-(4-hydroxypiperidin-1-yl)propyl]-1H-pyrrole-3-carboxamide]",7,10,17
"Cc1ccc(F)c(NC(=O)Nc2ccc(Oc3ccnc(-c4cc(C(=O)NCC(=O)O)c[nH]4)c3)cc2F)c1 [Example 210, {[(5-{4-[3-fluoro-4-({[(2-fluoro-5-methylphenyl)amino]carbonyl}amino)phenoxy]pyridin-2-yl}-1H-pyrrol-3-yl)carbonyl]amino}acetic acid]",12,8,13
"Cc1ccc(F)c(NC(=O)Nc2ccc(Oc3ccnc(-c4cc(C(=O)NCCCN(CC(=O)O)CC(=O)O)c[nH]4)c3)cc2)c1 [Example 214, 2,2′-[(3-{[(5-{4-[4-({[(2-fluoro-5-methylphenyl)amino]carbonyl}amino)phenoxy]pyridin-2-yl}-1H-pyrrol-3-yl)carbonyl]amino}propyl)imino]diacetic acid]",22,8,23
"Cc1ccc(F)c(NC(=O)Nc2ccc(Oc3ccnc(-c4cc(C(=O)N5CCN(CC(=O)O)CC5)c[nH]4)c3)cc2F)c1 [Example 218, {4-[(5-{4-[3-fluoro-4-({[(2-fluoro-5-methylphenyl)amino]carbonyl}amino)phenoxy]pyridin-2-yl}-1H-pyrrol-3-yl)carbonyl]piperazin-1-yl}acetic acid]",5,9,16
